From US6238689A, “Intestinal absorption of nicotine to treat nicotine responsive conditions” (Mayo Foundation for Medical Education and Research, priority 1998, dated 2001)
Read-outs that look alike come from different tables or passages of the source.

What was measured:
[1] = statement without test; cited from earlier work
[2] = Pharmacokinetics of nicotine after IV, oral and enema administration (Example 4)
Protocol: Intravenous nicotine was prepared using a nicotine base, supplied as the tartrate salt (Fisher Scientific/Eastman Kodak Company, Rochester, N.Y.). Solutions for injection were made up by combining 1.5 mg nicotine base (4.44 mg tartrate salt) in 100 ml of 0.9% sterile normal saline to form a 15 mcg/mL solution. The intravenous solution was filtered through a 0.22 micron filter into a sterile container and under sterile conditions. The solution was then cultured for organisms, assayed for endotoxin, and chemically analyzed prior to infusion to assure stable nicotine concentration. These samples were then be stored in sealed vials until the time of administration.
The oral preparation was formed by dissolving 45 micrograms nicotine base/kg body weight (133.3 micrograms tartrate salt/kg body weight) in 30 ml purified water.
The sorbitol was added to make the vehicle isoosmolar and the carboxymethylcellulose was used as a suspending agent.
Thirty paid human volunteers were admitted to the pharmacokinetic study after giving informed consent to a protocol approved by the institutional review board at the Mayo Clinic, Rochester, Minn. The subjects ranged in age from 21-56 and their body weights ranged from 45 to 153 Kg. All subjects were non-smokers and were healthy based on their histories, and physical examination. Subjects agreed to practice birth control during the study period. Complete blood count, chemistry group, urinalysis and pregnancy test (women only) were obtained. Subjects were excluded if they had cardiovascular disease, peripheral vascular disease, hypertension, were nursing mothers, had laboratory evidence of pregnancy, or had hepatic or renal dysfunction.
Each subject underwent 2 investigations (IV and non-IV) of 8 hours duration at least 1 week apart. During the IV visit, subjects were given a 15-30 minute infusion of the IV nicotine solution (15 mcg/Kg dose). […] On each study day, venous blood samples were drawn from an IV catheter into standard chemistry vacutainer tubes. Samples were obtained before nicotine administration and at the following time points (time=0 was defined as the point at which the nicotine infusion was started or the non-IV dose was administered): 5, 10, 15, 30, 60, 90 minutes, and 2, 3, 4, 5, 6, and 8 hours. Whole blood samples were centrifuged and plasma samples were then stored at -20 degrees Celsius until analysis. Plasma concentrations of nicotine were determined by gas chromatography/mass spectrometry as described by Baskin et al. (Clin. Chem., 31:76-80 (1991)).
For this study, the maximum plasma nicotine concentration (Cmax) and the time to reach Cmax (Tmax) were defined as the highest measured plasma concentrations and the time of the sample, respectively. The following pharmacokinetics parameters were calculated using standard equations (Gibaldi (ed.) Pharmcokinetics 2nd ed, Marcel Dekker Inc., New York 409-17 (1982)): area under the plasma nicotine concentration versus time curve (AUC), bioavailability (F), blood elimination half-life (T1/2), volume of distribution (Vdss), and blood nicotine clearance (Clb).
The computed bioavailability for each subject was used in an analysis of covariance to compare the five groups. Within subject (IV versus non-IV) variation was evaluated for each group of 6 subjects using a paired-T test. In addition, data was reviewed for gender variation.

[3] = Pharmacokinetics of nicotine tartrate after IV and Eudragit coated delayed release oral (DRO) capsules (Example 5)
Protocol: Delayed-release Eudragit™ coated oral nicotine capsules were prepared by Tillotts Pharma AG, Ziefen, Switzerland and consisted of either 3 mg or 6 mg of nicotine (8.887 mg or 17.774 mg nicotine tartrate base salt, respectively). The nicotine salt was suspended in an excipient (a saturated polyglycolized glyceride; Gelucire™ 44/14, (supplied by Gattefosse France) (190 mg or 380 mg respectively) and filled into hard gelatine capsules (size 1). The capsules were then coated with Eudragit™ L30D. Eudragit™ L30D is a polymer which dissolves at about pH 6.8 in the ileum. The size of the capsule and the thickness of the Eudragit coating are similar to those used to deliver Asacol™ (Eudragit coated mesalamine) to the terminal ileum (Schroeder et al., NEJM, 317:1625-9 (1987)).
Delayed-release Eudragit coated oral nicotine/carbomer capsules were prepared by Tillotts Pharma. Nicotine/carbomer powder (1:50--nicotine carbomer) was coated with Eudragit™ L, S or LS. The coated powder was then formed into spherules, coated with Eudragit S and filled into hard gelatine capsules (size 1). The capsules were then coated with Eudragit™ L30D. In one example, the capsules contained 150 mg nicotine-carbomer complex, equivalent to 3 mg nicotine base.
The aim of this study was to determine nicotine tartrate pharmacokinetics after administration by: IV, and 3 mg and 6 mg Eudragit S coated delay release oral (DRO) capsules.
Each subject had 2 studies [DRO and 15 μg/kg (mean 1 mg) IV] separated by >1 week with the order (IV vs DRO first) randomly assigned. After nicotine administration, blood was obtained for 12 hours and serum nicotine was determined by gas chromatography/mass spectrometry. Plasma cotinine concentrations were determined HPLC in 2 subjects (both 6 mg) over 72 hours. Pharmacokinetic parameters determined were: maximum concentration (Cmax); time to Cmax (Tmax); area under the curve (AUC); bioavailability (F); volume of distribution (Vdss); clearance (CL); and half-life (T1/2).
Delayed-release Eudragit coated oral nicotine capsules were prepared in accordance with Example 3, Part A.
Delayed-release Eudragit coated oral nicotine/Carbopol capsules were prepared in accordance with Example 3, Part B.

[4] = Side effects by questionnaire versus plasma nicotine concentration (Example 4); assay type: in vivo, human (healthy non-smoking volunteers)
Protocol: However, the threshold above which symptoms appeared varied from individual to individual with the nicotine concentration at which side effects first appeared ranging from 2.4 ng/mL to 9.9 ng/mL (although some subjects had nicotine concentrations of >11 ng/mL without symptoms).

[5] = Side effects after nicotine/Carbopol enema in healthy volunteers and patients with active UC (Example 6); assay type: in vivo, human
Protocol: Eight normal healthy volunteers and 8 patients with active UC were enrolled in this open label, single dose study.
The nicotine content of sample enemas was first confirmed by diluting a small volume of the contents in dilute hydrochloric acid to produce an approximate concentration of 30 ng/ml, which could then be accurately measured by our assay.
Side-effect experienced by the subjects were recorded as absent, mild, moderate or severe. Subjects were asked to report the time, nature and severity of any symptoms, at the commencement and each hour through the study, and were questioned particularly about nausea, vomiting, light-headedness, tremor, palpitations and headache. Blood pressure and pulse rate were also recorded each hour and when any symptoms occurred.

[6] = Side effects of nicotine delivered to the intestine versus gum and patch; assay type: in vivo, human; conditions: absorbed through the intestinal mucosa; inventors' belief
[7] = cited from earlier work
[8] = oral, 45 micrograms nicotine base/kg, previous study (Benowitz et al.); cited from earlier work
[9] = test system: cutaneous inflammatory response; conditions: transdermal delivery system; cited from earlier work
[10] = human, in vivo; cited from earlier work

CN1C(=O)CC[C@H]1c1cccnc1 [cotinine]
activity relative to nicotine [1]: less active metabolite than nicotine

CN1CCCC1c1cccnc1 (stereo not shown) [nicotine]
Tmax ([2]; human, plasma, iv, […]): 18 ± 6 min | AUC ([2]; human, plasma, iv, […], IV 15 mcg/kg over 15-30 min, n = 32, mean ± SD): 12 ± 5 ng·h/mL | Tmax ([2]; human, plasma, po, […]): 66 ± 6 min | bioavailability ([2]; human, plasma, po, […]): 19% | AUC ([2]; human, plasma, po, […], 45 mcg nicotine base/kg, n=6, analyzed on natural log scale): 9 ± 5 ng·h/mL | subjects with no detectable plasma levels ([2]; oral, 45 mcg/kg): 2 subjects | time at which nicotine was first detected in plasma ([2]; oral, 45 mcg/kg, when detectable): 30 min | colonic absorption, dependence on patient position ([2]; pilot study, two additional subjects, enema): higher plasma levels detected when subjects were allowed into a sitting position immediately after administration | first pass metabolism ([3]; 6 mg DRO versus IV): significant first pass metabolism | systemic bioavailability ([3]; DRO route to the ileocolon): reduced systemic bioavailability of nicotine | F ([3]; IV 15 μg/kg (mean 1 mg), n=20): 100 ± 0% | Tmax ([3]; human, in vivo, iv, […]): 24 ± 6 min | Vd ([3]; human, in vivo, iv, […]): 2 ± 1 L/kg | clearance ([3]; human, in vivo, iv, […]): 16.7 mL/min/kg | half-life ([3]; human, in vivo, iv, […]): 60 ± 60 min | nicotine concentration without symptoms (some subjects) ([4]; plasma): > 11 ng/mL | side effects, correlation with plasma nicotine concentrations ([4]; questionnaire every 30 minutes): closely correlated with plasma nicotine concentrations | side effects observed ([4]; variable frequency): nausea lightheadedness, and diaphoresis | rise in serum nicotine ([5]; administration to the colon): only modest rises in serum nicotine occur | tolerability ([5]; human, in vivo): side effects were few and the preparation well tolerated | nicotine's stability ([5]; phosphate buffer added, final pH of 5.5): increasing nicotine's stability | bioavailability, cause [6]: low bioavailability of nicotine absorbed through the intestinal mucosa appears to be largely due to its conversion to the major metabolite cotinine on first pass metabolism in the liver | effect on cardiovascular system ([7]; in vivo): increased heart rate and blood pressure resulting in greater myocardial work and oxygen requirement and coronary vasocontriction | effect on platelets and blood lipids ([7]; purported): activate platelets and to adversely affect blood lipids | tolerability [8]: well-tolerated | cutaneous inflammatory response to sodium lauryl sulphate and UVB radiation, and reactive hyperaemia [9]: suppress the cutaneous inflammatory response to sodium lauryl sulphate (irritant) and UVB radiation, as well as reactive hyperaemia following arterial occlusion | response of Alzheimer's and Parkinson's disease patients [10]: beneficial response
